The values below come from patent US9221822B2, “Thiazolopyrimidine modulators as immunosuppressive agents” (Katholieke Universiteit Leuven, K.U.Leuven R&D, priority 2009, dated 2015).

This assay concerns Human peripheral blood mononuclear cells (PBMCs) as Responder cells, RPMI 1788 Stimulator cells. Put plainly: Mixed Lymphocyte Reaction (MLR) test. The note with it: 6 days coculture, 3H-thymidine incorporation. The format is cell-based. Summed up: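 Human PBMC responders (0.12×10^6) were cocultured 6 days with mitomycin C-treated RPMI 1788 stimulators (0.045×10^6) and compound in RPMI 1640 with 10% FCS, in triplicate. A ^3H-thymidine pulse on day 5, harvested 18 h later, measured proliferation (cpm), converted to % inhibition versus a compound-free MLR.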
In general terms: Uptake of a labelled nucleoside into DNA is a usual measure of proliferation.

The mark [1] stands for this setting: Homo sapiens, RPMI-1788, lowest concentration giving 50% inhibition of the MLR.

The structures appear in SMILES notation. Where only a bound is given, the exact number is not on record here.

In general, IC50 refers to the midpoint of a concentration-inhibition curve. A high value points to weaker potency. In turn, `Nc1nc(N2CCN(Cc3ccc(F)cc3)CC2)c2nc(-c3ccc(F)cc3)[nH]c2n1` [Example 418, 6-(4-(4-fluorobenzyl)piperazin-1-yl)-8-(4-fluorophenyl)-9H-purin-2-amine] showed a 50% inhibitory concentration (IC50) under setting [1] of 9860 nM. This counts as single-digit micromolar. `Nc1nc(N2CCN(c3ccc(F)cc3)CC2)c2nc(-c3ccc(F)cc3)[nH]c2n1` [Example 415, 8-(4-fluorophenyl)-6-(4-(4-fluorophenyl)piperazin-1-yl)-9H-purin-2-amine] gave a 50% inhibitory concentration (IC50) under setting [1] of 4160 nM.

`COc1ccccc1NC(=O)N1CCN(c2nc(N)nc3sc(-c4ccc(F)cc4)nc23)CC1` [Example 219, 4-(5-amino-2-(4-fluorophenyl)thiazolo[5,4-d]pyrimidin-7-yl)-N-(2-methoxyphenyl)piperazine-1-carboxamide] came in with an IC50 under setting [1] of 323 nM. Compared with the last molecule, the IC50 is about 13-fold lower. Same read-out and setting: under `Nc1nc(N2CCC(C(=O)c3ccccc3)CC2)c2nc(CCc3ccc(F)cc3)sc2n1` [Example 148, 5-amino-2-[2-(4-fluorophenyl)ethyl]-7-(4-benzoylpiperidine-1-yl)-thiazolo[5,4-d]pyrimidine] stands 2610 nM.

Under setting [1], `CCCSc1nc2c(N3CCN(C(=O)COc4ccc(Cl)cc4)CC3)nc(N)nc2[nH]1` [Example 425, 1-(4-(2-amino-8-(propylthio)-9H-purin-6-yl)piperazin-1-yl)-2-(4-chlorophenoxy)ethanone] yielded an IC50 of 1020 nM. On the same count and under the same terms, under `Nc1nc(N2CCN(C(=O)COc3ccc(Cl)cc3)CC2)c2nc(-c3ccc(F)cc3)sc2n1` [Example 45, 1-(4-(5-amino-2-(4-fluorophenyl)thiazolo[5,4-d]pyrimidin-7-yl)piperazin-1-yl)-2-(4-chlorophenoxy)ethanone] stands 300 nM.

As for `COc1ccc(CNC(=O)N2CCN(c3nc(N)nc4sc(-c5cccnc5)nc34)CC2)cc1` [Example 278, 4-(5-amino-2-(pyridin-3-yl)thiazolo[5,4-d]pyrimidin-7-yl)-N-(4-methoxybenzyl)piperazine-1-carboxamide], 80 nM corresponded to half-maximal inhibition under setting [1] (IC50). This IC50 lies about 3.8-fold lower than the previous one. The molecule `N#Cc1ccc(NC(=O)N2CCN(c3nc(N)nc4sc(CCc5ccc(F)cc5)nc34)CC2)cc1` [Example 229, 4-(5-amino-2-(4-fluorophenethyl)thiazolo[5,4-d]pyrimidin-7-yl)-N-(4-cyanophenyl)piperazine-1-carboxamide] registered a concentration for half-maximal inhibition (IC50) under setting [1] of 2660 nM. The same measure, in the same setting: under `Nc1nc(N2CCN(C(=O)COc3ccc(Cl)cc3)CC2)c2nc(C3CCCCC3)oc2n1` [Example 187, 5-amino-2-cyclohexyl-7-[4-(4-chlorophenoxyacetyl)piperazin-1-yl]oxazolo[5,4-d]pyrimidine] stands greater than 10000 nM; under `Nc1nc(N2CCN(CC(=O)Nc3ccccn3)CC2)c2nc(-c3ccc(F)cc3)[nH]c2n1` [Example 416, 2-(4-(2-amino-8-(4-fluorophenyl)-9H-purin-6-yl)piperazin-1-yl)-N-(pyridin-2-yl)acetamide], 5760 nM. On to `COc1ccc(OCC(=O)N2CCN(c3nc(N)nc4sc(-c5ccc(Cl)cc5)nc34)CC2)cc1` [Example 280, 1-(4-(5-amino-2-(4-chlorophenyl)thiazolo[5,4-d]pyrimidin-7-yl)piperazin-1-yl)-2-(4-methoxyphenoxy)ethanone], for which the IC50 (lowest concentration giving 50% inhibition of the MLR) was greater than 10000 nM. Molecule `N#Cc1ccc(NC(=O)N2CCN(c3nc(N)nc4sc(-c5cccnc5)nc34)CC2)cc1` [Example 279, 4-(5-amino-2-(pyridin-3-yl)thiazolo[5,4-d]pyrimidin-7-yl)-N-(4-cyanophenyl)piperazine-1-carboxamide] registered an IC50 under setting [1] of 100 nM. The same measure, in the same setting: as for `Nc1nc(NC2CCCN(C(=O)OCc3ccccc3)C2)c2nc(CCc3ccc(F)cc3)sc2n1` (centres unmarked) [Example 145, 5-amino-2-[2-(4-fluorophenyl)ethyl]-7-(1-benzyloxycarbonylpiperidin-3-ylamino)-thiazolo[5,4-d]pyrimidine], the figure is 4350 nM; as for `CCCCCc1nc2c(N3CCN(C(=O)COc4ccc(Cl)cc4)CC3)nc(N)nc2s1` [Example 297, 1-(4-(5-amino-2-pentylthiazolo[5,4-d]pyrimidin-7-yl)piperazin-1-yl)-2-(4-chlorophenoxy)ethanone], 690 nM; as for `Nc1nc(N2CCN(C(=O)COc3ccc(Cl)cc3)CC2)c2nc(C3CCCCC3)sc2n1` [Example 120, 5-amino-7-[4-(4-chlorophenoxyacetyl)piperazin-1-yl]-2-cyclohexylthiazolo[5,4-d]pyrimidine], 830 nM. The same measure, in the same setting: under `Cc1nc2c(N3CCN(C(=O)COc4ccc(Cl)cc4)CC3)nc(N)nc2[nH]1` [Example 400, 1-(4-(2-amino-8-methyl-9H-purin-6-yl)piperazin-1-yl)-2-(4-chlorophenoxy)ethanone] stands 450 nM. On the same count and under the same terms, under `Nc1nc(N2CCN(C(=O)CCc3ccc(F)cc3)CC2)c2nc(-c3ccc(F)cc3)sc2n1` [Example 236, 1-(4-(5-amino-2-(4-fluorophenyl)thiazolo[5,4-d]pyrimidin-7-yl)piperazin-1-yl)-3-(4-fluorophenyl)propan-1-one] stands 890 nM; under `Nc1nc(N2CCN(C(=O)COc3ccc(Cl)cc3)CC2)c2nc(Cc3ccc(Cl)cc3)sc2n1` [Example 122, 5-amino-7-[4-(4-chlorophenoxyacetyl)piperazin-1-yl]-2-(4-chlorophenylmethyl)thiazolo[5,4-d]pyrimidine], greater than 10000 nM; under `Cc1ccc(NC(=O)N2CCN(c3nc(N)nc4sc(-c5ccc(F)cc5)nc34)CC2)cc1` [Example 42, 4-(5-amino-2-(4-fluorophenyl)-thiazolo[5,4-d]pyrimidin-7-yl)-N-p-tolylpiperazine-1-carboxamide], 700 nM. As for `CCCc1nc2c(N3CCN(C(=O)COc4ccc(Cl)cc4)CC3)nc(N)nc2[nH]1` [Example 397, 1-(4-(2-amino-8-propyl-9H-purin-6-yl)piperazin-1-yl)-2-(4-chlorophenoxy)ethanone], half-maximal inhibition under setting [1] (IC50) was put at 940 nM.

Turning to `Nc1nc(N2CC[C@@H](NC(=O)c3ccc(Cl)cc3)C2)c2cc(-c3ccc(F)cc3)sc2n1` [Example 341, (R)—N-(1-(2-amino-6-(4-fluorophenyl)thieno[2,3-d]pyrimidin-4-yl)pyrrolidin-3-yl)-4-chlorobenzamide], under setting [1], the half-inhibitory concentration (IC50) stood at 7230 nM. This IC50 is about 7.7-fold higher than that of the molecule before.

As to `Nc1nc(N2CCN(C(=O)COc3ccc(O)cc3)CC2)c2nc(CCc3ccc(F)cc3)sc2n1` [Example 224, 1-(4-(5-amino-2-(4-fluorophenethyl)thiazolo[5,4-d]pyrimidin-7-yl)piperazin-1-yl)-2-(4-hydroxyphenoxy)ethanone], under setting [1], the IC50 was 1100 nM. This IC50 lies about 6.6-fold lower than the previous one. For the molecule `Nc1nc(N2CCN(C(=O)CCc3ccccc3)CC2)c2nc(-c3ccc(F)cc3)[nH]c2n1` [Example 438, 1-(4-(2-amino-8-(4-fluorophenyl)-9H-purin-6-yl)piperazin-1-yl)-3-phenylpropan-1-one], half-maximal inhibition under setting [1] (IC50) was put at 2580 nM. This IC50 is about 2.3-fold higher than that of the molecule before. Under setting [1], `C[S+]([O-])c1nc2c(N3CCN(C(=O)COc4ccc(Cl)cc4)CC3)nc(N)nc2s1` (centres unmarked) [Example 126, 5-amino-7-[4-(4-chlorophenoxyacetyl)piperazin-1-yl]-2-methylsulfinyl-thiazolo[5,4-d]pyrimidine] returned an IC50 of 2650 nM. For `Nc1nc(SCc2ccccc2)c2nc(-c3ccc(F)cc3)sc2n1` [Example 28, 7-(benzylthio)-2-(4-fluorophenyl)thiazolo[5,4-d]pyrimidin-5-amine], under setting [1], the half-inhibitory concentration (IC50) is greater than 10000 nM.

As to `Nc1nc(N2CCN(C(=O)COc3ccc(Br)cc3)CC2)c2nc(-c3ccc(F)cc3)sc2n1` [Example 235, 1-(4-(5-amino-2-(4-fluorophenyl)thiazolo[5,4-d]pyrimidin-7-yl)piperazin-1-yl)-2-(4-bromophenoxy)ethanone], half-maximal inhibition under setting [1] (IC50) required 460 nM.
